Experimental data from ChEMBL document CHEMBL5726194, “Benzenesulfonamide compounds and their use as therapeutic agents” (2017).

Test: Electrophysiological Assay : The following patch voltage clamp electrophysiology studies were performed on representative compounds of the invention using human embryonic kidney cells (HEK), permanently transfected with an expression vector containing the full-length cDNA coding for the desired human sodium channel α-subunit, grown in culture media containing 10% FBS, 1% PSG, and 0.5 mg/mL G418 at 37° C. with 5% CO2. […] Nav1.7 and Nav1.5 cDNAs (NM_002977 and AC137587; SCN5A, respectively) were stably expressed in HEK-293 cells. The β1 subunit was coexpressed only in the Nav1.7 cell line.
Type: cell-based

## O=S(=O)(Nc1ncns1)c1cc(F)c(OC[C@@H]2CNCC[C@H]2c2ccc(F)c(C(F)(F)F)c2)cc1F (relative stereo)
  IC50: 71 nM
